# Experimental data reported in patent US20190380964A1, “METHODS AND COMPOSITIONS FOR MAKING AND USING NANOTHERAPEUTIC DRUG DELIVERY VEHICLES” (GEORGE MASON UNIVERSITY, priority 2018, published 2019).
# Assays:
# [1] = tested on: MDA-MB-231 cells; details: concentration at which DXR liposomal carriers were introduced; read-out: EC-50 of DXR; cited from earlier work
# [2] = tested on: MDA-MB-231 cells; assay: WST-1 proliferation / viability of MDA-MB-231 cells exposed to targeted DXR liposomes; assay type: cell-based; details: 8 or 24 hours exposure, evaluated over 3 days
# Experimental: In an alternate embodiment, MDA-MB-231 cells were grown in DMEM containing 10% FBS and 1× Penicillin-Streptomycin solution. The cells were cultured at 70% confluence and plated in a 96 well plate at a density of 5×10^4 cells/well. The cells were incubated undisturbed for two days prior to any experimentation. Liposomal suspensions were UV sterilized prior to introduction to cell cultures. On the second day, the liposomal carriers containing DXR were introduced to the cultures at the EC-50 of DXR (0.01 μM21). Proliferating cells were quantified and normalized by the control using WST-1 proliferation assay.
# Liposomes were incubated with DXR (17.2 mM) and DSPE-PEG-MAL (0.1 mol %) for 1 hour. The suspension was then purified using spin columns and incubated overnight with CD44 antibodies as described in the methods. Targeted liposomes were introduced to cultures of MDA-MB-231 cells and allowed to interact for 8 hours or 24 hours prior to being washed. […] Viability was analyzed over 72 hours using WST-1 as an indicator of proliferation and normalized to a media only control (e.g., as is illustrated in FIG. 8D).
smiles,measurement,setting,value
"COc1cccc2c1C(=O)c1c(O)c3c(c(O)c1C2=O)C[C@@](O)(C(=O)CO)C[C@@H]3O[C@H]1C[C@H](N)[C@H](O)[C@H](C)O1 [DXR, doxorubicin]",EC50,[1],10 nM
same,"cancer cell viability (result in words, FIG. 8D)",[2],demonstrated efficacy in reducing cancer cell viability
